Laboratory results reported in patent publication US6841548B2, “Pharmaceutical preparations containing estra-1,3,5(10)-triene derivatives” (Schering AG, priority 1994, dated 2005).

How the values were obtained:
Format in all cases: in vivo, rat
ovariectomated rats [1] = test: Hepatic parameters: serum angiotensin I, modified RIA for renin activity; design: Angiotensin I: unit not given here; conditions: for Angiotensin I: Experiment A
Source text: (§1) The laboratory animals, adult female rats (breeder: HSD/WIN:WU) were ovariectomated on day 14. Treatment started two weeks later by a single oral application per day of the respective test substance. The dosages given for esters refer to the steroid portion of the substances. The tests were made in three groups (A, B, C) at various points in time. This is why there is a deviation in control group values. The tests of series A, B, and C can therefore be compared among each other if the values for the respective control groups are taken into account.
(§2) The procedure of allocating animals to groups was randomized. The experiment was carried out as a block test. The animals were weighed at the beginning and at the end of the experiment.
(§3) The start of treatment was defined as day 1 (=d1), treatment was finished on day 7 (=d7); the animals were killed on day 8, various organs (uteri, adrenal glands, liver) were removed, weighed and deep-frozen (−196° C.) for further examination.
(§4) Blood was taken from the retrobulbar plexus under ether anaesthesia prior to treatment (d0), and on (d4) and (d8). IGF1, angiotensin I, cholesterol and HDL cholesterol were determined in the serum obtained.
angiotensin: modified RIA for renin activity by Sorin Co.

ovariectomated rats [2] = test: Oral estrogenic effects: weights of adrenal glands in ovariectomated rats
Source text: as §1, §2, §3

ovariectomated rats [3] = test: Oral estrogen treatment: serum IGF1 (somatomedin C), RIA; design: unit not given here; conditions: Experiment A
Source text: as §1, §2, §3, §4
IGF1: RIA by bioMérieux Co.;

ovariectomated rats [4] = test: Oral estrogenic effects: uterus weights in ovariectomated rats
Source text: as §1, §2, §3

ovariectomated rats [5] = test: Hepatic parameters: total cholesterol levels in serum, enzymatic test; conditions: all doses
Method: The laboratory animals, adult female rats (breeder: HSD/WIN:WU) were ovariectomated on day 14. Treatment started two weeks later by a single oral application per day of the respective test substance. The dosages given for esters refer to the steroid portion of the substances. The tests were made in three groups (A, B, C) at various points in time.
as §2, §3, §4
(§5) cholesterol/HDL: enzymatic tests, photometric determination, reagents by Dr Bruno Lange GmbH.

ovariectomated rats [6] = test: Hepatic parameters: HDL cholesterol levels in serum, enzymatic test; conditions: Experiment A
Source text: as §1, §2, §3, §4, §5

[7] = day 4, 0.1 μg/animal/day p.o. d1-d7
[8] = day 4, 1 μg/animal/day p.o. d1-d7
[9] = day 4, 10 μg/animal/day p.o. d1-d7
[10] = day 4, 100 μg/animal/day p.o. d1-d7
[11] = day 8, 0.1 μg/animal/day p.o. d1-d7
[12] = day 8, 1 μg/animal/day p.o. d1-d7
[13] = day 8, 10 μg/animal/day p.o. d1-d7
[14] = day 8, 100 μg/animal/day p.o. d1-d7
[15] = Experiment A, 0.1 μg/animal/day p.o. d1-d7
[16] = Experiment A, 1 μg/animal/day p.o. d1-d7
[17] = Experiment A, 10 μg/animal/day p.o. d1-d7
[18] = Experiment A, 100 μg/animal/day p.o. d1-d7
[19] = Experiment B, 10 μg/animal/day p.o. d1-d7
[20] = Experiment C, 10 μg/animal/day p.o. d1-d7

C[C@]12CC[C@@H]3c4ccc(O)cc4CC[C@H]3[C@@H]1CC[C@@H]2O [Example E2, estradiol]
Angiotensin I (ovariectomated rats [1]; [7]): 376.2 ± 48.3
Angiotensin I (ovariectomated rats [1]; [8]): 359.8 ± 53.4
Angiotensin I (ovariectomated rats [1]; [9]): 412.8 ± 66.6
Angiotensin I (ovariectomated rats [1]; [10]): 497.7 ± 69.0
Angiotensin I (ovariectomated rats [1]; [11]): 449.5 ± 55.1
Angiotensin I (ovariectomated rats [1]; [12]): 392.9 ± 32.0
Angiotensin I (ovariectomated rats [1]; [13]): 335.5 ± 24.9
Angiotensin I (ovariectomated rats [1]; [14]): 464.3 ± 16.7
Effect on angiotensin I (AI) values, in words (ovariectomated rats [1]; at any dose throughout the experiment): no recognizable effect
Influence on the angiotensin I level, summary in words (ovariectomated rats [1]; dose-action relationships on days 4 and 8): at best has marginal stimulating influence
Weights of adrenal glands (mean value) (ovariectomated rats [2]; [15]): 49.3 mg
Weights of adrenal glands (mean value) (ovariectomated rats [2]; [16]): 57.9 mg
Weights of adrenal glands (mean value) (ovariectomated rats [2]; [17]): 61.6 mg
Weights of adrenal glands (mean value) (ovariectomated rats [2]; [18]): 54.4 mg
Weights of adrenal glands (mean value) (ovariectomated rats [2]; [19]): 54.4 mg
IGF1 (= somatomedin C) (ovariectomated rats [3]; 100 μg/animal/day p.o. d1-d7, d 0 (prior to treatment)): 717.4 ± 80.8
IGF1 (= somatomedin C) (ovariectomated rats [3]; 100 μg/animal/day p.o. d1-d7, d 4): 623.6 ± 100.0
IGF1 (= somatomedin C) (ovariectomated rats [3]; 100 μg/animal/day p.o. d1-d7, d 8): 601.1 ± 108.8
Uterus weights (mean value) (ovariectomated rats [4]; [15]): 123.3 mg
Uterus weights (mean value) (ovariectomated rats [4]; [16]): 128.9 mg
Uterus weights (mean value) (ovariectomated rats [4]; [17]): 130.7 mg
Uterus weights (mean value) (ovariectomated rats [4]; [18]): 285.4 mg
Uterus weights (mean value) (ovariectomated rats [4]; [19]): 182.3 mg
Effect on cholesterol levels in the blood (total and HDL), in words (ovariectomated rats [5]): did not reduce cholesterol levels in the blood
HDL cholesterol levels (mean value ± standard deviation) (ovariectomated rats [6]; [7]): 49.1 ± 7.8 mg/dL
HDL cholesterol levels (mean value ± standard deviation) (ovariectomated rats [6]; [8]): 50.9 ± 6.1 mg/dL
HDL cholesterol levels (mean value ± standard deviation) (ovariectomated rats [6]; [9]): 55.0 ± 6.9 mg/dL
HDL cholesterol levels (mean value ± standard deviation) (ovariectomated rats [6]; [10]): 43.7 ± 7.6 mg/dL
HDL cholesterol levels (mean value ± standard deviation) (ovariectomated rats [6]; [11]): 51.0 ± 4.6 mg/dL
HDL cholesterol levels (mean value ± standard deviation) (ovariectomated rats [6]; [12]): 52.3 ± 4.1 mg/dL
HDL cholesterol levels (mean value ± standard deviation) (ovariectomated rats [6]; [13]): 51.5 ± 3.9 mg/dL
HDL cholesterol levels (mean value ± standard deviation) (ovariectomated rats [6]; [14]): 46.0 ± 9.2 mg/dL

CCN(CC)S(=O)(=O)Oc1ccc2c(c1)CC[C@@H]1[C@@H]2CC[C@]2(C)[C@@H](O)C[C@@H]3C[C@]312 [J 983, 17β-Hydroxy-14α,15α-methylen-estra-1,3,5(10)-trien-3-yl N,N-diethyl-sulfamate]
Weights of adrenal glands (mean value) (ovariectomated rats [2]; [19]): 53.9 mg
Uterus weights (mean value) (ovariectomated rats [4]; [19]): 348.6 mg

CCN(CC)S(=O)(=O)Oc1ccc2c(c1)CC[C@@H]1[C@@H]2CC[C@]2(C)C(=O)CC[C@@H]12 [J 804, Estra-1,3,5(10)-trien-17-on-3-yl N,N-diethyl-sulfamate]
Weights of adrenal glands (mean value) (ovariectomated rats [2]; [19]): 53.9 mg
Uterus weights (mean value) (ovariectomated rats [4]; [19]): 166.0 mg

C[C@]12CC[C@@H]3c4ccc(O)cc4CC[C@H]3[C@@H]1CCC2=O [Example E1, estrone]
Weights of adrenal glands (mean value) (ovariectomated rats [2]; [19]): 49.8 mg
Uterus weights (mean value) (ovariectomated rats [4]; [19]): 170.63 mg

C[C@]12CC[C@@H]3c4ccc(O)cc4CC[C@H]3[C@@H]1C[C@@H](O)[C@@H]2O [Example E3, estratriol]
Weights of adrenal glands (mean value) (ovariectomated rats [2]; [20]): 52.2 mg
Uterus weights (mean value) (ovariectomated rats [4]; [20]): 301.94 mg

C#CC1(O)CCC2C3CCc4cc(OS(=O)(=O)N(C)C)ccc4C3CCC21C (stereo not drawn) [J 665, 17β-Hydroxy-19-nor-17α-pregna-1,3,5(10)-trien-20-in-3-yl N,N-dimethyl-sulfamate]
Weights of adrenal glands (mean value) (ovariectomated rats [2]; [19]): 58.0 mg
Uterus weights (mean value) (ovariectomated rats [4]; [19]): 639.48 mg

C#CC1(O)CCC2C3CCc4cc(OS(=O)(=O)N5CCCC5)ccc4C3CCC21C (stereo not drawn) [J 272, 17β-Hydroxy-19-nor-17α-pregna-1,3,5(10)-trien-20-in-3-yl N,N-pyrrolidinosulfonate]
Weights of adrenal glands (mean value) (ovariectomated rats [2]; [19]): 57.5 mg
Uterus weights (mean value) (ovariectomated rats [4]; [19]): 620.7 mg

CN(C)S(=O)(=O)Oc1ccc2c(c1)CC[C@@H]1[C@@H]2CC[C@]2(C)[C@@H](O)C[C@@H]3C[C@]312 [J 982, 17β-Hydroxy-14α,15α-methylen-estra-1,3,5(10)-trien-3-yl N,N-dimethyl-sulfamate]
Weights of adrenal glands (mean value) (ovariectomated rats [2]; [19]): 55.3 mg
Uterus weights (mean value) (ovariectomated rats [4]; [19]): 193.4 mg
